Results on nine molecules are retold here after US20090312238A1, “Protection Against Oxidative Damage in Cells” (Florida Atlantic University, priority 2006, published 2009).

For one test, the target named is T1, hMsrB3 (Homo sapiens, UniProt Q8IXL7).
T1 construct: made in house; host or cells: BL21 E. coli
T1 sequence (Q8IXL7 33-192): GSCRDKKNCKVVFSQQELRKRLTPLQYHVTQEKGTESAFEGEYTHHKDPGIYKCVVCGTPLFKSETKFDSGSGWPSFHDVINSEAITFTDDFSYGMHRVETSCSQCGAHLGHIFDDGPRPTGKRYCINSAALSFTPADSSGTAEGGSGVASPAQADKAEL
The experiment in a line: Colorimetric assay for Msr activity based on the reduction of DABS-met(o). The class given is biochemical. The settings on record: for activity of chelating agent in place of EDTA with Zn-MT: EGTA 5 or 20 mM, deferoxamine 5 mM, zincon 500 μM. As for the experimental part: (§1) The reaction mixture (200 μl) to measure Msr activity contained 100 mM Tris-Cl pH 7.4, 100 nmoles of the indicated DABS-met(o) epimer (see Materials), either 15 mM DTT or the Trx regenerating system (Trx, 10 μg, Trx reductase, 2.4 μg, NADPH, 500 μM) and Msr enzyme as indicated. When the liver fractions (Zn-MT, T or T(o)) were tested, DTT was omitted and the Trx reducing system and 5 mM EDTA were added as indicated. Incubations were for 60 minutes at 37° C. unless noted otherwise. […] The quantitation of DABS-met formed employed a slight modification of an extraction procedure previously described by Etienne et al (Etienne, F., Resnick, L., Sagher, D., Brot, N. & Weissbach, H. (2003) Biochem Biophys Res Commun 312, 1005-1010) for the reduction of sulindac to sulindac sulfide by MsrA. The reactions were stopped by the addition of 200 μl of 1 M sodium acetate pH 6.0, followed by the addition of 100 μL of acetonitrile and 1 ml of benzene. After thorough shaking and centrifugation, the optical density of the benzene layer was read at 436 nm. […] Unless indicated otherwise, the results are presented as nmoles DABS-met formed in 60 minutes.

A further test deals with Zn-MT. The settings on record: appearance of free SH groups.
The target in the next test is T2, eMsrA (Escherichia coli, UniProt P0A744).
T2 construct: made in house; host or cells: E. coli
The experiment in a line: Colorimetric assay for Msr activity based on the reduction of DABS-met(o). The class given is biochemical, E. coli. The conditions noted are these: for nmoles DABS-met: eMsrA 1.6 μg. As for the experimental part: as §1

Test [1] has as its target T3, eMsrB (Escherichia coli, UniProt P0A746).
T3 construct: made in house; host or cells: E. coli
Described as above. It is filed as biochemical, E. coli. As for the experimental part: as §1

For the next test, the target named is T4, bMsrA (Bos taurus, UniProt P54149).
T4 construct: made in house; host or cells: E. coli
T4 sequence (P54149 21-233): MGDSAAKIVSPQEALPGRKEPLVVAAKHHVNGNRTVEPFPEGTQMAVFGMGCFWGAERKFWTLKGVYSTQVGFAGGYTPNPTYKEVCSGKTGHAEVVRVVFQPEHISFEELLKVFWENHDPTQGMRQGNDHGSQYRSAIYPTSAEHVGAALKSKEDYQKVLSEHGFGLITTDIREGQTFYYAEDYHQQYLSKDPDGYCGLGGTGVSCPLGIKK
The test is described as above. It is filed as biochemical, bovine. As for the experimental part: as §1

The target of a further test is T5, hMsrB2 (Homo sapiens, UniProt Q9Y3D2).
T5 construct: made in house; host or cells: E. coli
The description is as above. The class given is biochemical. The settings on record: for nmoles DABS-met: hMsrB2 2.7 μg. As for the experimental part: as §1

In test [2] the target is T6, eMsrB (Escherichia coli, UniProt P0A746).
T6 construct: made in house; host or cells: E. coli
T6 sequence (P0A746 whole entry, looked up): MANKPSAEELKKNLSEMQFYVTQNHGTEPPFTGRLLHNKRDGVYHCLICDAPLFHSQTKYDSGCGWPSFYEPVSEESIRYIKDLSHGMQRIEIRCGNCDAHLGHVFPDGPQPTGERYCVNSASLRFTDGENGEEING
The test is described as above. It is filed as biochemical, E. coli. As for the experimental part:
as §1
This is another data set of the same source.

A further test concerns the target T7, T(o) (Bos taurus, UniProt P68301).
T7 construct: Fresh bovine liver was homogenized in 3 volumes of 50 mM Tris, pH 7.4; from tissue; host or cells: bovine liver
The experiment in a line: Reduction of T(o) by Trx, oxidation of NADPH followed at 340 nm. The class given is biochemical, bovine. The settings on record: FIG. 4; 100 μM NADPH, 26 μg Trx, 6 μg TrxB, 28 μg partially-oxidized T. As for the experimental part:
To study the reduction of T(o) by Trx, the reaction mixtures contained, in a total volume of 1 ml, 100 μM NADPH, 26 μg Trx, 6 μg TrxB and 28 μg of partially-oxidized T (see above). The oxidation of NADPH was followed at 340 nm at room temperature.

In the next test the test system is Msr enzymes. The experiment in a line: Msr activity assay, statements on the Msr enzymes as a group. The class given is biochemical. The settings on record: no Trx system or T. As for the experimental part: as §1
A further test addresses T8, MsrA (Rattus norvegicus, UniProt Q923M1).
T8 construct: endogenous in cells; host or cells: primary neonatal rat cardiomyocytes
T8 sequence (Q923M1 21-233): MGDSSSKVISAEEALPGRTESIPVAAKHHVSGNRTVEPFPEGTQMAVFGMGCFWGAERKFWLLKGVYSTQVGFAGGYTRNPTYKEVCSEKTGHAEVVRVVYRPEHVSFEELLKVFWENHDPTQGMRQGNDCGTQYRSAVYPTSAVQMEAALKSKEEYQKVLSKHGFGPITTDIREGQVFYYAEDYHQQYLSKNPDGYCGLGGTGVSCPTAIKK
Put plainly: MsrA activity in cardiomyocytes, reduction of sulindac to sulindac sulfide. The class given is cell-based. The conditions noted are these: for amount of product (sulindac sulfide): primary neonatal rat cardiomyocytes, 400 μM sulindac. As for the experimental part: FIG. 10 is a graph showing selenocystamine (SeCm) can enhance MsrA activity in cardiomyocytes. Cardiomyocytes were incubated with 400 μM sulindac and indicated concentration of selenocystamine. Briefly, primary neonatal rat cardiomyocytes (approximately 10^6 cells per treatment) were incubated with sulindac and two different concentrations of selenocystamine. Sulindac is a substrate for MsrA, and the amount of the reduced product, sulindac sulfide, indicates the amount of MsrA activity. The amount of product is 2.7, 3.7 and 5.6 picomoles for 0, 5 μM and 50 μM selenocystamine, respectively. This amounts to a 37% and 107% stimulation.

Where [3] appears, read: Table 1, DABS-met-S-(o), 15 mM DTT or Trx regenerating system, 60 minutes at 37° C.
The mark [4] stands for this setting: Table 2, 20 nmoles Zn-MT with 5 mM EDTA, or 15 mM DTT.
[5] abbreviates: Table 1, eMsrB 2.7 μg, DABS-met-R-(o), 15 mM DTT or Trx regenerating system, 60 minutes at 37° C.
[6] abbreviates: Table 1, bMsrA 2 μg, DABS-met-S-(o), 15 mM DTT or Trx regenerating system, 60 minutes at 37° C.
Setting [7] is: Table 1, DABS-met-R-(o), 15 mM DTT or Trx regenerating system, 60 minutes at 37° C.
The mark [8] stands for this setting: Table 1, hMsrB3 2.3 μg, DABS-met-R-(o), 15 mM DTT or Trx regenerating system, 60 minutes at 37° C.
[9] abbreviates: mammalian Trx and mammalian Trx reductase.

Where only a bound is given, the exact number is not on record here.

T2 sequence (P0A744 whole entry): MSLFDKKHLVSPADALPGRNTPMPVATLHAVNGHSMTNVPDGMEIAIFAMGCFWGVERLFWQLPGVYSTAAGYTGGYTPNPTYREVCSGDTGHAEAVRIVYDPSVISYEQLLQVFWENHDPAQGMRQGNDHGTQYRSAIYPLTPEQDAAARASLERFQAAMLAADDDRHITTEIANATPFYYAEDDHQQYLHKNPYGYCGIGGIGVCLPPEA
T5 sequence (Q9Y3D2 21-182): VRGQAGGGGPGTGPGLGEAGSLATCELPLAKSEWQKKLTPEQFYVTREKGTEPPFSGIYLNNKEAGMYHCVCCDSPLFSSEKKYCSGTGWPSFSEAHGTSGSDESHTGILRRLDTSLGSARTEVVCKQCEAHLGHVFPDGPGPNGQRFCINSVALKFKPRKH
T7 sequence (P68301 whole entry): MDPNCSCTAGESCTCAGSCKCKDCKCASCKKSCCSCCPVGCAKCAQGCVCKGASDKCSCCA
Description for Zn-MT: Briefly, purified Zn-MT was dialyzed against 10 mM HCl (pH 2.0) containing 150 mM NaCl for 12 hours at 4° C. The protein after dialysis is reduced, metal-free T and appears stable when left at pH 2.0. To study the activity of T in the Msr system, T was neutralized and added to the reaction mixtures immediately before the incubations were initiated. To oxidize T, 0.75 volumes of 50 mM Tris base were added to the T sample to bring the pH to 8.5. Under these conditions, approximately 50% of the sulfhydryls will become oxidized after 4 hours at room temperature or 2 hours at 37° C. With longer incubations, the T(o) started to precipitate.

For the molecule `O=C(O)CN(CCN(CC(=O)O)CC(=O)O)CC(=O)O` [EDTA, ethylenediaminetetraacetic acid], the “effect of EDTA by itself on hMsrB3 activity” value at hMsrB3 (EDTA alone) is on record as “no significant effect”. At hMsrB3 (heated liver S-100 as reducing source), the “levels of EDTA giving optimal activity” value is on record as “above 2.5 mM”. Besides, in the test with Zn-MT, the “time for removal of zinc from Zn-MT” value is given as “less than 10 minutes” and the “zinc removed from Zn-MT” value is listed as over 90%.
In the case of `O[C@@H](CS)[C@@H](O)CS` [DTT, reference compound], the “nmoles DABS-met” value came out at 46.2 nmol on eMsrA (setting [3]); 45.7 nmol at eMsrA (setting [4]); 11.1 nmol at eMsrB [1] (setting [5]); 27.8 nmol at eMsrB [1] (Table 2, eMsrB 5.4 μg, 20 nmoles Zn-MT with 5 mM EDTA, or 15 mM DTT); 30.0 nmol at bMsrA (setting [6]); 38.9 nmol at bMsrA (Table 2, bMsrA 2.0 μg, 20 nmoles Zn-MT with 5 mM EDTA, or 15 mM DTT). Besides, the “nmoles DABS-met” value turned out to be 31.3 nmol at hMsrB2 (setting [7]); 27.1 nmol on hMsrB2 (setting [4]); 53.8 nmol on hMsrB3 (setting [8]); 53.7 nmol at hMsrB3 (Table 2, hMsrB3 2.3 μg, 20 nmoles Zn-MT with 5 mM EDTA, or 15 mM DTT). In addition, on hMsrB3 (experiment of Table 3, hMsrB3 2.3 μg, 15 mM DTT), the “nmoles DABS-met formed” value was 52.7 nmol.
On to `O=C(O)CN(CCOCCOCCN(CC(=O)O)CC(=O)O)CC(=O)O` [EGTA], for which the “activity of chelating agent in place of EDTA with Zn-MT” value (“activity of chelating agent” below) on hMsrB3 is “inactive”.
Take “Trx: thioredoxin overexpressed and purified from E. coli; used as Trx regenerating system with Trx reductase and NADPH”: the “Ratio Trx/DTT” value in the test with eMsrA (Table 1, eMsrA) is recorded as 1.0; with eMsrB [2] (Table 1, eMsrB), 5.4; with bMsrA (Table 1, bMsrA) it was 0.53; in the test with hMsrB2 (Table 1, hMsrB2) it was 0.03; in the test with hMsrB3 (Table 1, hMsrB3), 0.03. Moreover, the “nmoles DABS-met” value worked out at 46.8 nmol in the test with eMsrA (setting [3]); 60.3 nmol in the test with eMsrB [2] (setting [5]); 15.8 nmol in the test with bMsrA (setting [6]); 0.8 nmol in the test with hMsrB2 (setting [7]); 1.7 nmol in the test with hMsrB3 (setting [8]); 2.4 nmol with hMsrB3 (Table 3 line 2, hMsrB3 2.3 μg, no T(o), Trx + NADPH + Trx reductase). Also, the “activity with Trx relative to the activity seen with DTT” value with hMsrB2 (hMsrB2) and in the test with hMsrB3 (hMsrB3) was “less than 10%” each time. For the same molecule, in the test with T(o), the “oxidation of NADPH” value was “dependent on Trx, Trx reductase and T(o)”.
Turning to `O=C(O)c1ccccc1NN=C(N=Nc1cc(S(=O)(=O)O)ccc1O)c1ccccc1` [zincon], the “activity of chelating agent” value on hMsrB3 was “inactive”.
As to `c1cnc2c(c1)ccc1cccnc12` [1,10-phenanthroline], at hMsrB3 (5 mM), the “activity relative to EDTA, chelating agent in place of EDTA with Zn-MT” value was “about 40%”.
As to `CC(=O)N(O)CCCCCNC(=O)CCC(=O)N(O)CCCCCNC(=O)CCC(=O)N(O)CCCCCN` [deferoxamine], the “activity of chelating agent” value on hMsrB3 was “inactive”.
For the molecule `NCC[Se][Se]CCN` [SeC, selenocystamine], the “stimulation by SeC above the Trx system alone” value on eMsrA (E. coli enzymes) and at eMsrB [1] (E. coli enzymes) was “less than a twofold stimulation” in each case. Moreover, the “stimulation by SeC” value is given as 10-20% on eMsrA (complete Trx system, eMsrA) and 10-20% at eMsrB [1] (complete Trx system, eMsrB). For the same molecule, on bMsrA (complete Trx system, bMsrA), the “increase of activity in the presence of SeC” value is recorded as “more than 3 fold”. In addition, the “final concentration of SeC at maximal stimulation” value on hMsrB3 (FIG. 7, NADPH and Trx reductase or T as primary reducing agent) turned out to be 50 µM. Moreover, in the test on Msr enzymes, the “activity of SeC by itself” value is “no activity”. Further, the “stimulation of MsrA activity” value was 37% on MsrA (5 μM selenocystamine versus 0) and 107% at MsrA (50 μM selenocystamine versus 0). In addition, the “amount of product (sulindac sulfide)” value on MsrA (5 μM selenocystamine) was found to be 3.7 picomoles; on MsrA (50 μM selenocystamine), 5.6 picomoles.

B1: mammalian Trx: reduced mammalian Trx with mammalian Trx reductase; human Trx from Sigma, rat Trx reductase (TR3) (protein, UniProt P10599 2-105, looked up)
Thioredoxin: VKQIESKTAFQEALDAAGDKLVVVDFSATWCGPCKMIKPFFHSLSEKYSNVIFLEVDVDDCQDVASECEVKCMPTFQFFKKGQKVGEFSGANKEKLEATINELV
modifications: with rat Trx reductase
Turning to B1, the “use of Trx from either source” value with eMsrA (setting [9]) and with eMsrB [2] (setting [9]) was “efficiently used” throughout. For the same molecule, the “activity with reduced mammalian Trx” value with hMsrB3 (setting [9]) is “very poor activity”.
